Source: publication PMC9005971, “Discovery of 2-(4-Acrylamidophenyl)-Quinoline-4-Carboxylic Acid Derivatives as Potent SIRT3 Inhibitors” (Frontiers in Chemistry, 2022)

Assays:
[1] = system: THP-1, MOLM-13, SEM and MV4-11 cells; assay: Colony formation assay, MLLr leukemic cells; assay type: cell-based; conditions: 0.2–2.0 µM, 12 days
Method: THP-1, MOLM-13, SEM and MV4-11 cells were cultured with P6 (0–2.0 µM) in 2.6% methycellulose medium containing 10% FBS in a 24-well flat-bottomed plate for 12 days ([Qu et al., 2021]). The number of individual colonies consisting of more than approximately 50 cells was counted by a CX43 microscope (Olympus, Shinjuku-ku, Tokyo, Japan) with an Olympus EP50 camera (Olympus, Shinjuku-ku, Tokyo, Japan).

THP-1 cells = assay: In vitro antiproliferative CCK-8 assay, THP-1; assay type: cell-based; conditions: Homo sapiens
Method: The proliferation of THP-1, MOLM-13, SEM and MV4-11 cells was tested by CCK-8 assay. Briefly, cells were seeded in 96-well plate with about 5 × 10^3 cells in each well. The cells were treated with P6 or Ara-C (0–10 µM) after 24 h of incubation. CCK-8 reagent ([…]) was added to each well after 72 h of incubation, and cells were incubated at 37°C for 4 h. The light absorbance at 450 nm was measured by using an Opsys microplate reader (Dynex Technologirs, Chantilly, VA, United States). Results are illustrated as percent of cell viability normalized to DMSO-treated control cells.

SIRT1 = target: T1, SIRT1 (Homo sapiens, UniProt Q96EB6); assay: SIRT1 enzyme inhibitory assay (fluorescence); assay type: biochemical; conditions: for activity at 0.01 µM / activity at 0.033 µM / activity at 0.1 µM / activity at 0.333 µM / activity at 1 µM / activity at 3.3 µM / activity at 10 µM / activity at 33 µM / activity at 100 µM: SIRT1 enzyme activity; for activity at 0.01 µM: 10 nM; for activity at 0.033 µM: 33 nM; for activity at 0.1 µM: 100 nM; for activity at 0.333 µM: 333 nM
T1 sequence (Q96EB6 1-747): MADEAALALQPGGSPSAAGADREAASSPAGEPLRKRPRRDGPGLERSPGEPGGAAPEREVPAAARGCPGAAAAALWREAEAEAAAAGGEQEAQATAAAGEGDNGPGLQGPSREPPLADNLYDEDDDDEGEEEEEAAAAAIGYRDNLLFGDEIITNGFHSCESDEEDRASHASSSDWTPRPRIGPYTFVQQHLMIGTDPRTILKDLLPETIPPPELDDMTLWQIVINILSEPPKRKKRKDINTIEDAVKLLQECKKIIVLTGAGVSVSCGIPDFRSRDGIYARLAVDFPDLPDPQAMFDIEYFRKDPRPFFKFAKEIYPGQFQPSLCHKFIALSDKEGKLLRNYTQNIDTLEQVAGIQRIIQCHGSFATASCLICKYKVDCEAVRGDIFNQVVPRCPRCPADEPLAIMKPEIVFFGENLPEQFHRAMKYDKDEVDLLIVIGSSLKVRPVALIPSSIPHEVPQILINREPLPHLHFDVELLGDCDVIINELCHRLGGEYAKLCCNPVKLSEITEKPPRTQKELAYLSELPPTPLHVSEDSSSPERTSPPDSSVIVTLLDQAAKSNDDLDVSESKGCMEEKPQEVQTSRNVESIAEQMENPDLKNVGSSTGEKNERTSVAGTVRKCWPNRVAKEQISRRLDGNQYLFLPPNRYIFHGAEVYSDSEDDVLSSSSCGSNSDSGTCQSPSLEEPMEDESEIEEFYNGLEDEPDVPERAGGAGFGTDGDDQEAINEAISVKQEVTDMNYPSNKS
Method: All of the enzymatic reactions were conducted at 37°C for 30 min. […] The compounds were diluted in 10% DMSO and 5 ul of the dilution was added to each reaction mixture (50 ul). The assay was performed by quantitating the amount of fluorescent product generated from the enzyme reaction. Fluorescence intensity is then analyzed at excitation wavelength of 350–360 nm and emission wavelength of 450–460 nm on a SpectraMax M5 microtiter plate reader. The IC50 values were calculated using Prism GraphPad software.

[2] = system: THP-1, MOLM-13, SEM and MV4-11 cells; assay: Cell morphology / differentiation (Wright-Giemsa staining); assay type: cell-based; conditions: 72 h
Method: THP-1, MOLM-13, SEM and MV4-11 cells were incubated with P6 or Ara-C for 72 h and then collected. Slides were made by cytospin and subsequently air dried. The cells were stained with Wright-Giemsa and observed for morphological features using a light microscope.

C=CC(=O)Nc1ccc(-c2cc(C(=O)N3CCN(c4ccccc4F)CC3)c3ccccc3n2)cc1 [Compound P6, N-(4-{4-[4-(2-Fluoro-phenyl)-piperazine-1-carbonyl]-quinolin-2-yl}-phenyl)-acrylamide]
effect on number of colonies [1]: significantly reduce the number of colonies with a dose dependent manner
IC50 (THP-1 cells; 72 h, CCK-8, read-out: IC50 growth inhibition THP-1): 0.87 µM
inhibition at 1 µM (THP-1 cells; dose of 1 μM, mean of three experiments, read-out: THP-1 percentage inhibitory rate): 85.9 ± 3.42%
activity at 0.01 µM (SIRT1; Repeat1): 98%
activity at 0.01 µM (SIRT1; Repeat2): 102%
activity at 0.033 µM (SIRT1; Repeat1): 97%
activity at 0.033 µM (SIRT1; Repeat2): 98%
activity at 0.1 µM (SIRT1; Repeat1): 100%
activity at 0.1 µM (SIRT1; Repeat2): 97%
activity at 0.333 µM (SIRT1; Repeat1): 101%
activity at 0.333 µM (SIRT1; Repeat2): 95%
activity at 1 µM (SIRT1; Repeat1): 97%
activity at 1 µM (SIRT1; Repeat2): 89%
activity at 3.3 µM (SIRT1; Repeat1): 91%
activity at 3.3 µM (SIRT1; Repeat2): 85%
activity at 10 µM (SIRT1; Repeat1): 61%
activity at 10 µM (SIRT1; Repeat2): 64%
activity at 33 µM (SIRT1; Repeat1): 42%
activity at 33 µM (SIRT1; Repeat2): 40%
activity at 100 µM (SIRT1; Repeat1): 25%
activity at 100 µM (SIRT1; Repeat2): 26%
IC50 (SIRT1; mean of two experiments): 32.6 ± 0.8 µM
cell differentiation / morphology [2]: induced the cell differentiation accompanied with morphological changes
